“Also recorded” adds a separate entry of the source. Like-named read-outs stand apart in the source and are kept apart here.
Legend:
HIV-2 (ROD/A) [1] = assay: Chronic HIV-2 replication in HeLa-CD4 cells, p24 ELISA; assay type: cell-based; details: p24, 7 days; read-out: EC50, chronic infection by HIV-2
Excerpt: Antigen p24 in the supernatant measured as in FIG. 5F, 7 days post-infection.

PBMCs = assay: Viability of uninfected PBMCs (MTT, ViViD/Annexin V); assay type: cell-based, human
Experimental: FIG. 13A: Mitochondrial metabolic activity.
Viability was measured after 24 h and 72 h of culture. PBMCs were stained with FITC-labeled antibody to CD3 (555339), Alexa 700-labeled antibody to CD4 (557922), PerCP-Cy5.5-labeled antibody to CD8 (341051), V450-labeled antibody to CD14 (560349), V450-labeled antibody to CD19 (560353), APC-labeled antibody to AnnexinV (550474) and Live/Dead Aqua blue (L34957). All antibodies were purchased from BD Biosciences except for Live/Dead Aqua blue (Invitrogen). Analyses were performed on a LSRII (BD Bioscience) flow cytometer.

HIV-2 (ROD/A) [2] = assay: Acute HIV-2 replication in HeLa-CD4 cells, p24 ELISA; assay type: cell-based; details: p24, 5 days post-infection
Excerpt: Antigen p24 in the supernatant measured using a sandwiched ELISA kit, 5 days post-infection.

[3] = test system: RNAPII occupancy of the HIV promoter and ORF; assay: ChIP of RNAPII on HIV promoter and ORF; assay type: cell-based, HIV-1; details: 4 days treatment
Experimental: FIG. 3C: ChIP assay of the HIV promoter. […] Lysates were sonicated, the crosslinks were reversed and RNAPII was immunoprecipitated. DNA was measured by qPCR using the indicated set of primers. ChIP values are represented as percentages of input. Error bars, ±s.d. (n=3). *P<0.05; **P<0.01 (unpaired t-test).
Cells were fixed with formaldehyde (1% [vol/vol]) to crosslink the chromatin and incubated at room temperature for 10 min. Crosslinking was arrested by adding glycine[0.125 M] and incubated for an additional 5 min at room temperature. Cells were then pelleted, washed twice with phosphate-buffered saline, ressuspended in SDS lysis buffer, and incubated 10 min on ice. All solutions used prior to the collection of chromatin-antibody complexes contained protease and phosphatase inhibitor cocktail. Cell lysates were sonicated 4 times for 10 s bursts on ice. The sheared chromatin was diluted by the addition of 3 volumes of ChIP dilution buffer (0.01% SDS, 1.1% Triton X-100, 1.2 mM EDTA, 16.7 mM Tris-HCl (pH 8.1), 167 mM NaCl) and pre-cleared with salmon sperm DNA-protein A/G agarose slurry for 2 h. […] The relative proportions of co-immunoprecipitated DNA fragments were determined on the basis of the threshold cycle (CT) for each PCR product. […]

CDK11 = CDK11 (Homo sapiens, UniProt P21127); assay: In vitro CDK11 kinase assay with 9G8 as substrate; assay type: biochemical
Experimental: To the mixture, 100 μM of ATP and 5 μCi of γ-^32P-ATP (3000 Ci/mmol 10 mCi/ml) were added to a final volume of 30 μl in kinase buffer. Following 30 min at 30° C., the reaction was terminated by addition of 6 μl of 6× SDS loading buffer. After boiling for 10 min, proteins were separated by SDS-PAGE. The gel was dried and visualized by autoradiography.

HeLa-CD4 cells = assay: MTT mitochondrial metabolic activity (cell viability); assay type: cell-based
HIV-1 pNL4-3 = assay: Chronically HIV-1 infected HeLa-CD4 cells, viral RNA by qRT-PCR / p24; assay type: cell-based
Experimental: FIG. 1G: p24 antigen quantification. Viral supernatants recovered from cells described in FIG. 1B, grown for 60 days, were assayed for their p24 antigen content using a sandwich ELISA kit. Error bars represent standard deviations.
First-strand cDNA from RNA for qPCR was prepared using […]™ first-strand cDNA kit (Invitrogen), following the manufacturer's instructions, using approximately 5 μg of RNA as starting material and random hexamers as first-strand primers. Quantitative PCR was performed with an aliquot of cDNA as template, using […]® 480 SYBR Green I Master (Roche) in a 20 μL reaction according to the manufacturer's instructions. […] The primers used were as follows: […]
Such an early time point rules out de novo infections. […] This conclusion was further supported by the fact that treatment of cells that were chronically infected, and therefore continuously shedding the virus (without incurring new infections, due to down-regulation of CD4 from the cell surface), reduced virus production to undetectable levels (FIG. 1F). […] Results were similar when viral release from cells treated for 60 days were measured by p24 enzyme-linked immunosorbent assay (ELISA) (FIG. 1G).

Chain of CDK11 (P21127 whole entry): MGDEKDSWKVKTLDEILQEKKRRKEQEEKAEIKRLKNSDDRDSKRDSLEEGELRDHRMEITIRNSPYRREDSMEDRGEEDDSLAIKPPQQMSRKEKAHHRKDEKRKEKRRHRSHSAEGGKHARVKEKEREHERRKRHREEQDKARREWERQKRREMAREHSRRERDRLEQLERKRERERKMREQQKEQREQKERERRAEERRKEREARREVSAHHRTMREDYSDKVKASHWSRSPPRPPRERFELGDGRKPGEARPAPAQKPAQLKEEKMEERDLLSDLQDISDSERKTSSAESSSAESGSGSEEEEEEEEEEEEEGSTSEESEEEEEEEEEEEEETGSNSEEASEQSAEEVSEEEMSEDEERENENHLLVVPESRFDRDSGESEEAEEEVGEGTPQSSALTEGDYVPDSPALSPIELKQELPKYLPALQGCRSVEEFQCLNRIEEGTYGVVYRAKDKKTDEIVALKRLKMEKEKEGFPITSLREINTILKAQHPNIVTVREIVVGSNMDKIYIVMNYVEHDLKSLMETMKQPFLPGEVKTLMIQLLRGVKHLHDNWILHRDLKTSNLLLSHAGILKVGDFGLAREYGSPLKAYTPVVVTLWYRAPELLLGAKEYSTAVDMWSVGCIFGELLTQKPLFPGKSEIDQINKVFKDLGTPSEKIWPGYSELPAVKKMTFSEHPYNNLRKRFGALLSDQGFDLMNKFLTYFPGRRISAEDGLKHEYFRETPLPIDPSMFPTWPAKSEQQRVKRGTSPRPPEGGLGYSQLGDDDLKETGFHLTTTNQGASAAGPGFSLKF

CN(C)[C@H]1C[C@@]23CC[C@@]4(O2)C(=CC[C@]2(C)C(c5ccc6ccncc6c5)=CC[C@H]24)C=C3[C@@H](O)[C@@H]1O [dCA, didehydro-Cortistatin A]
EC50 (HIV-2 (ROD/A) [1]): ~1.7 nM | CC50 (PBMCs): 100000 nM | EC50 (HIV-2 (ROD/A) [2]): ~5 nM | association of RNAPII with the HIV promoter and ORF [3]: significantly decreased | in vitro CDK11 kinase activity (CDK11): unable to block; also recorded: did not inhibit | CC50 (HeLa-CD4 cells): 20000 nM | CC50 (HeLa-CD4 cells; cultured cell lines or freshly isolated PBLs, read-out: cytotoxic concentration (CC50)): 20000 nM | inhibition of viral replication (HIV-1 pNL4-3; chronically infected cells grown in 100 nM for longer periods): 99% | EC50 (HIV-1 pNL4-3; read-out: EC50 for abrogating chronic HIV infection): < 0.1 nM | EC50 (HIV-1 pNL4-3; treatment for 10 or 60 days, read-out: EC50, reduction of viral cellular RNA levels): ≥ 0.1 nM | EC90 (HIV-1 pNL4-3; treatment for 10 or 60 days, read-out: EC90, reduction of viral cellular RNA levels): < 10 nM
